Reference: patent publication US8987500B2, “4-biphenyl-substituted pyrazolidin-3,5-dione derivatives” (Bayer CropScience AG, priority 2003, dated 2015)

Tests used:
Sphaerotheca fuliginea = assay: Sphaerotheca test (cucumber)/protective, Example H; type: in vivo; conditions: Sphaerotheca fuliginea on cucumber, protective, application rate 750 g/ha, evaluation 7 days after inoculation
Protocol: Sphaerotheca Test (Cucumber)/Protective [table] To produce a suitable preparation of active compound, 1 part by weight of active compound is mixed with the stated amounts of solvent and emulsifier, and the concentrate is diluted with water to the desired concentration. To test for protective activity, young cucumber plants are sprayed with the preparation of active compound at the stated application rate. 1 day after the treatment, the plants are inoculated with a spore suspension of Sphaerotheca fuliginea. The plants are then placed in a greenhouse at 70% relative atmospheric humidity and a temperature of 23° C. Evaluation is carried out 7 days after the inoculation. 0% means an efficacy which corresponds to that of the control, whereas an efficacy of 100% means that no infection is observed.

[1] = system: larvae of the mustard beetle (Phaedon cochleariae); assay: Phaedon test (spray treatment), Example E; type: in vivo; conditions: Table E
Protocol: (§1) Phaedon Test (Spray Treatment) [table] To produce a suitable preparation of active compound, 1 part by weight of active compound is mixed with the stated amounts of solvents and emulsifier, and the concentrate is diluted with emulsifier-containing water to the desired concentration. Discs of Chinese cabbage (Brassica pekinensis) are sprayed with a preparation of active compound of the desired concentration and, after they have dried, populated with larvae of the mustard beetle (Phaedon cochleariae). After the desired period of time, the activity in % is determined 100% means that all beetle larvae have been killed; 0% means that none of the beetle larvae have been killed.

[2] = system: greenhouse red spider mite (Tetranychus urticae); assay: Tetranychus test (OP-resistant/spray treatment), Example G; type: in vivo; conditions: Tetranychus urticae (OP-resistant), bean leaf discs, spray treatment, 500 g/ha
Protocol: Tetranychus Test (OP-Resistant/Spray Treatment)
(§2) To produce a suitable preparation of active compound, 1 part by weight of active compound is mixed with the stated amounts of solvents and emulsifier, and the concentrate is diluted with emulsifier-containing water to the desired concentration.
Discs of bean leaves (Phaseolus vulgaris) which are infested by all stages of the greenhouse red spider mite (Tetranychus urticae) are sprayed with a preparation of active compound of the desired concentration.
After the desired period of time, the activity in % is determined 100% means that all spider mites have been killed; 0% means that none of the spider mites have been killed.

[3] = system: caterpillars of the army worm (Spodoptera frugiperda); assay: Spodoptera frugiperda test (spray treatment), Example B; type: in vivo; conditions: Table B, 500 g/ha active compound
Protocol: as §1, with “Spodoptera frugiperda” for “Phaedon”, “maize leaves (Zea mays)” for “Chinese cabbage (Brassica pekinensis)”, “caterpillars” for “larvae”, “army worm (Spodoptera frugiperda).” for “mustard beetle (Phaedon cochleariae).”, “caterpillars” for “beetle larvae”

[4] = system: green peach aphid (Myzus persicae); assay: Myzus test (spray treatment), Example D; type: in vivo; conditions: Table D
Protocol: Myzus Test (Spray Treatment)
as §2
Discs of Chinese cabbage (Brassica pekinensi), which are infested by all stages of the green peach aphid (Myzus persicae) are sprayed with a preparation of active compound of the desired concentration.
After the desired period of time, the activity in % is determined 100% means that all aphids have been killed; 0% means that none of the aphids have been killed.

[5] = system: caterpillars of the army worm (Spodoptera frugiperda); assay: Spodoptera frugiperda test (spray treatment), Example F; type: in vivo; conditions: maize leaf discs, 500 g/ha
Protocol: as §1, with “Spodoptera frugiperda” for “Phaedon”, “maize leaves (Zea mays)” for “Chinese cabbage (Brassica pekinensis)”, “caterpillars” for “larvae”, “army worm (Spodoptera frugiperda).” for “mustard beetle (Phaedon cochleariae).”, “caterpillars” for “beetle larvae”

[6] = system: monocotyledonous and dicotyledonous weed and crop plants; assay: Herbicidal post-emergence action, Example J; type: in vivo; conditions: Greenhouse, 320 g a.i./ha, about 3 weeks
Protocol: Herbicidal Post-Emergence Action Seeds of monocotyledonous and dicotyledonous weed and crop plants are placed into sandy loam in woodfibre pots, covered with soil and cultivated in a greenhouse under good growth conditions. 2-3 weeks after sowing, the test plants are treated at the one-leaf stage. The test compounds formulated as wettable powders (WP) are, in various dosages with a water application rate of 600 l/ha (converted), with 0.2% of wetting agent added, sprayed onto the green parts of the plants. After the test plants have been kept in the greenhouse under optimum growth conditions for about 3 weeks, the effect of the preparations is rated visually in comparison to untreated controls (herbicidal effect in percent (%): 100% effect=plants have died, 0% effect=like control plants).

Meloidogyne incognita = assay: Meloidogyne test, Example C; type: in vivo; conditions: Table C, 20 ppm active compound, nematicidal effect by formation of galls
Protocol: Meloidogyne Test [table] To produce a suitable preparation of active compound, 1 part by weight of active compound is mixed with the stated amounts of solvent, and the concentrate is diluted with water to the desired concentration. Containers are filled with sand, solution of active compound, Meloidogyne incognita egg/larvae suspension and lettuce seeds. The lettuce seeds germinate and the plants develop. On the roots, galls are formed. After the desired period of time, the nematicidal effect is determined in % by the formation of galls. 100% means that no galls have been found; 0% means that the number of galls on the treated plants corresponds to that of the untreated control.

[7] = system: larvae of the mustard beetle (Phaedon cochleariae); assay: Phaedon test (spray treatment), Example A; type: in vivo; conditions: Table A, 500 g/ha active compound
Protocol: as §1

With `Cc1ccc(-c2cccc(Cl)c2)cc1-c1c(OC(=O)C(C)(C)C)n2n(c1=O)CCCC2` [Ex. I-1-b-3] as the compound, how does the Efficacy in % (Sphaerotheca fuliginea) read?
The Efficacy in % was 90%.

Which “Kill rate in % after 7d” value ([1]; 500 g/ha active compound) does the source give for `Cc1ccc(-c2ccc(Cl)cc2)cc1-c1c(OC(=O)C(C)(C)C)n2n(c1=O)CCCC2` [Ex. I-1-b-4] here?
The value was 100%.

What about the “Kill rate in % after 5d” value [2] of the same compound?
Its value is 100%.

What about the “Kill rate in % after 7d” value [3] of the same compound?
The value was 100%.

With `Cc1ccc(-c2ccc(Cl)cc2Cl)cc1-c1c(OC(=O)C(C)(C)C)n2n(c1=O)CCCC2` [Ex. I-1-b-11] as the compound, how does the “Kill rate in % after 5d” value ([4]; 500 g/ha active compound) read?
Its value is 100%.

And the “Kill rate in % after 7d” value [5]?
The value was 100%.

For `Cc1ccc(-c2cc(Cl)cc(Cl)c2)cc1-c1c(OC(=O)C(C)(C)C)n2n(c1=O)CCCC2` [Ex. I-1-b-14], which “Kill rate in % after 5d” value ([4]; 500 g/ha active compound) is on record?
Its value is 100%.

Which “Kill rate in % after 5d” value ([4]; 500 g/ha active compound) does the source give for `Cc1ccc(-c2ccc(F)c(Cl)c2)cc1-c1c(OC(=O)C(C)(C)C)n2n(c1=O)CCCC2` [Ex. I-1-b-17] here?
Its value is 90%.

And the “Kill rate in % after 7d” value [5]?
The value was 100%.

What does the source list for `Cc1ccc(-c2ccc(C(F)(F)F)cc2)cc1-c1c(OC(=O)C(C)(C)C)n2n(c1=O)CCCC2` [Ex. I-1-b-20]?
herbicidal effect in percent, Avena fatua [6]: 80%; herbicidal effect in percent, Lolium [6]: 80%; herbicidal effect in percent, Setaria [6]: 90%

With `Cc1ccc(-c2cccc([N+](=O)[O-])c2)cc1-c1c(OC(=O)C(C)(C)C)n2n(c1=O)CCCC2` [Ex. I-1-b-26] as the compound, how does the “Kill rate in % after 5d” value ([4]; 500 g/ha active compound) read?
Its value is 100%.

With `Cc1ccc(-c2ccc(C(C)C)cc2)cc1-c1c(OC(=O)C(C)(C)C)n2n(c1=O)CCCC2` [Ex. I-1-b-30] as the compound, how does the “Kill rate in % after 5d” value ([4]; 500 g/ha active compound) read?
Its value is 100%.

For `Cc1ccc(-c2ccc(F)cc2)cc1-c1c(OC(=O)C2CC2)n2n(c1=O)CCCC2` [Ex. I-1-b-33], which “Kill rate in % after 5d” value ([4]; 100 g/ha active compound) is on record?
The value was 100%.

Which “Kill rate in % after 7d” value [3] does the source give for `CCOC(=O)Oc1c(-c2cc(-c3ccc(Cl)cc3)ccc2C)c(=O)n2n1CCCC2` [Ex. I-1-c-4] here?
Its value is 100%.

Which “Kill rate in % after 7d” value ([1]; 500 g/ha active compound) does the source give for `CCOC(=O)Oc1c(-c2cc(-c3ccc(F)cc3F)ccc2C)c(=O)n2n1CCCC2` [Ex. I-1-c-15] here?
The value was 100%.

What about the “Kill rate in % after 5d” value [2] of the same compound?
Its value is 100%.

And the “Kill rate in % after 5d” value ([4]; 500 g/ha active compound)?
The value was 100%.

Which “Kill rate in % after 5d” value [2] does the source give for `CCOC(=O)Oc1c(-c2cc(-c3ccc(F)c(Cl)c3)ccc2C)c(=O)n2n1CCCC2` [Ex. I-1-c-17] here?
The value was 100%.

And the “Kill rate in % after 7d” value [5]?
The value was 83%.

What does the source list for `CCOC(=O)Oc1c(-c2cc(-c3ccc(C(F)(F)F)cc3)ccc2C)c(=O)n2n1CCCC2` [Ex. I-1-c-19]?
herbicidal effect in percent, Avena fatua [6]: 70%; herbicidal effect in percent, Lolium [6]: 80%; herbicidal effect in percent, Setaria [6]: 100%

Which “Kill rate in % after 5d” value ([4]; 500 g/ha active compound) does the source give for `Cc1ccc(-c2ccc(Cl)c(Cl)c2)cc1-c1c(OC(=O)C(C)(C)C)n2n(c1=O)CCOCC2` [Ex. I-2-b-13] here?
The value was 100%.

With `Cc1ccc(-c2ccc(F)cc2F)cc1-c1c(OC(=O)C(C)(C)C)n2n(c1=O)CCOCC2` [Ex. I-2-b-15] as the compound, how does the “Kill rate in % after 5d” value ([4]; 500 g/ha active compound) read?
Its value is 100%.

What about the “Kill rate in % after 7d” value [5] of the same compound?
The value was 100%.

With `COc1ccccc1-c1ccc(C)c(-c2c(OC(=O)C(C)(C)C)n3n(c2=O)CCOCC3)c1` [Ex. I-2-b-21] as the compound, how does the “Kill rate in % after 5d” value ([4]; 500 g/ha active compound) read?
The value was 100%.

With `Cc1ccc(-c2ccc(C(C)C)cc2)cc1-c1c(OC(=O)C(C)(C)C)n2n(c1=O)CCOCC2` [Ex. I-2-b-30] as the compound, how does the “Kill rate in % after 5d” value ([4]; 500 g/ha active compound) read?
Its value is 100%.

With `Cc1ccc(-c2ccc(Cl)cc2)cc1-c1c(OC(=O)C(C)C)n2n(c1=O)CCOCC2` [Ex. I-2-b-31] as the compound, how does the “Kill rate in % after 5d” value ([4]; 500 g/ha active compound) read?
The value was 100%.

What does the source list for `CCOC(=O)Oc1c(-c2cc(-c3ccc(F)cc3)ccc2C)c(=O)n2n1CCOCC2` [Ex. I-2-c-6]?
Effect in % after 14d (Meloidogyne incognita): 90%; Kill rate in % after 5d ([4]; 100 g/ha active compound): 100%

With `CCOC(=O)Oc1c(-c2cc(-c3cc(F)ccc3F)ccc2C)c(=O)n2n1CCOCC2` [Ex. I-2-c-16] as the compound, how does the “Kill rate in % after 5d” value ([4]; 500 g/ha active compound) read?
Its value is 100%.

For `Cc1ccc(-c2ccc(F)cc2)cc1-c1c(O)n2n(c1=O)CCCC2` [Example I-1-a-1], which “Effect in % after 14d” value (Meloidogyne incognita) is on record?
Its value is 80%.

What about the melting point of the same compound?
The melting point was 172 °C.

For `Cc1ccc(-c2ccc(Cl)cc2)cc1-c1c(O)n2n(c1=O)CCCC2` [Example I-1-a-4], which “Kill rate in % after 7d” value [7] is on record?
Its value is 100%.

With `Cc1ccc(-c2cc(Cl)ccc2Cl)cc1-c1c(O)n2n(c1=O)CCCC2` [Example I-1-a-12] as the compound, how does the “herbicidal effect in percent, Avena fatua” value [6] read?
Its value is 80%.

And the “herbicidal effect in percent, Lolium” value [6]?
Its value is 70%.

And the “herbicidal effect in percent, Setaria” value [6]?
Its value is 70%.

Which results are given for `COc1cccc(-c2ccc(C)c(-c3c(O)n4n(c3=O)CCCC4)c2)c1` [Example I-1-a-22]?
herbicidal effect in percent, Amaranthus ([6]; Amaranthus): 70%; herbicidal effect in percent, Lolium [6]: 100%; herbicidal effect in percent, Setaria [6]: 90%

What does the source list for `Cc1ccc(-c2ccc(F)cc2)cc1-c1c(OC(=O)C(C)(C)C)n2n(c1=O)CCCC2` [Example I-1-b-1]?
Effect in % after 14d (Meloidogyne incognita): 90%; Kill rate in % after 7d ([1]; 500 g/ha active compound): 100%; Efficacy in % (Sphaerotheca fuliginea): 94%

Which “Kill rate in % after 7d” value ([1]; 100 g/ha active compound) does the source give for `CCOC(=O)Oc1c(-c2cc(-c3ccc(F)cc3)ccc2C)c(=O)n2n1CCCC2` [Example I-1-c-1] here?
Its value is 100%.

And the “Kill rate in % after 5d” value ([4]; 100 g/ha active compound)?
The value was 100%.

What about the “herbicidal effect in percent, Avena fatua” value [6] of the same compound?
Its value is 90%.

What about the “herbicidal effect in percent, Lolium” value [6] of the same compound?
The value was 90%.

What about the “herbicidal effect in percent, Setaria” value [6] of the same compound?
The value was 80%.

And the Efficacy in % (Sphaerotheca fuliginea)?
Its Efficacy in % is 80%.

For `Cc1cc(C)c(-c2c(O)n3n(c2=O)CCOCC3)c(C)c1-c1ccc(F)cc1` [Example I-2-a-32], which “Kill rate in % after 5d” value ([4]; 500 g/ha active compound) is on record?
The value was 90%.
